Test results: US9546129B2, “DTPA prodrugs, compositions thereof, and methods of using the same” (priority 2012, dated 2017)
Marks after values point to notes of the source that are not given here.

Legend:
[1] = Gadolinium complex stability constant by titration; assay type: binding; settings: 3-5 mM in 0.1 M KCl, equimolar gadolinium chloride
Method: The stability constant for a complex between C2E2 and gadolinium (i.e., the C2E2-Gd complex) was determined by titration. C2E2 solutions (3-5 mM) were prepared in 0.1 M KCl. Gadolinium chloride was added in equimolar concentrations. The experiment consisted of a titration with base, followed by a titration with acid. After each addition of titrant, a 30 second equilibration time passed before pH measurement with a Seven Easy pH meter and (Ag/AgCl reference) glass electrode (Metler Tolledo). The pKa values previously determined, as described in Example 9, were used to calculate the gadolinium stability constant using […] software. The stability of the C2E2-Gd complex was log K 17.34±1.13, which lies between those of EDTA and DTPA (17.0 and 22.5, respectively).

[2] = system: ^241Am contaminated beagle dogs (inhalation); experiment: Decorporation efficacy in beagle dogs after ^241Am nitrate inhalation (Example 2); assay type: in vivo, beagle dog; settings: for Average percent recovered activity, Feces / Average percent recovered activity, Urine: cumulative, Mean (SEM); for Average percent recovered activity, GIT / Average percent recovered activity, Kidney / Average percent recovered activity, Liver / Average percent recovered activity, Lung / Average percent recovered activity, Ovaries / Average percent recovered activity, Soft Tissue / Average percent recovered activity, Spleen / Average percent recovered activity, TBLN / Average percent recovered activity, Testes / Average percent recovered activity, Total Bone: day 14, Mean (SEM)
Method: The efficacy of C2E2 of Lot 050 obtained using Method 2 was evaluated in male and female beagle dogs administered a nitrate complex of americium-241 (^241Am) via inhalation (INH). C2E2 was administered 24 hours post ^241Am inhalation exposure. Animals were monitored and urine and feces were collected daily. Cages were rinsed daily. Animals were euthanized 14 days later and tissues collected. Tissues were processed and analyzed for ^241Am content. The in-life measurements and biokinetics of ^241Am with and without chelation treatment are described.
Sixteen (16) male and female beagle dogs underwent a 14-day quarantine period for acclimation. Once released from quarantine, animals were weighed and that weight was used to randomize the animals into the study. Dogs were 13.3±2.2 months of age at study initiation and weighed 8.9±1.2 kg. After randomization, the animals were acclimated to metabolism cages for approximately 24 hours prior to radionuclide inhalation administration of ^241Am(III)-nitrate at time 0 followed by oral gavage administration of vehicle (water) or 100, 300, or 500 mg/kg C2E2 at 24 hours post inhalation exposure. Animals were placed in metabolism cages for the duration of the in-life phase.
Animals were euthanized 14 days after administration of ^241Am. A full necropsy was conducted and liver, spleen, kidneys, lungs and trachea, muscle samples (right and left quadriceps), GI tract (stomach and esophagus, upper and lower intestine), gonads, two femurs, lumbar vertebrae (L1-L4), paws and tail, TBLN, and all soft tissue remains were collected. The brain and eyes were removed from the skull and combined with the soft tissue remains. The skeleton was defleshed and all bone samples collected for analysis. Pelt was not analyzed for ^241Am content.
Urine, feces, cage rinse, and all tissue samples were processed by heat and chemical treatments. The samples were analyzed by gamma pulse height analysis.
For the study, stock C2E2 (L/N: 020WJL050) was obtained as a white powder and stored at 2-8° C. The C2E2 was weighed out and dissolved in vehicle, DI water. Solutions were prepared at 20 mg/mL, 60 mg/mL, and 100 mg/mL on each day of dosing. The formulation was protected from light by wrapping the container in aluminum foil. Metal-free spatulas, glassware, and stir bars were used when weighing and preparing the formulation.
On the morning of exposure, animals were fasted and sedated with acepromazine (0.05 mg/kg) by intramuscular administration. Dogs were anesthetized with isoflurane (5%). A latex mask was placed over the muzzle to minimize external contamination of the dog. The latex-covered muzzle was placed into the exposure plenum where a mixture of oxygen and isoflurane were continuously flowing and being monitored. Oxygen in the box was maintained at 45-55% and isoflurane was delivered as needed (2-3% in oxygen) to ensure the dog remained anesthetized. Aerosols were generated from the ^241Am nitrate solution using a Hospitec nebulizer operated at 10 psi. The aerosol was transited through a tube furnace operating at 70-80° C. to dry the aerosol and minimize the amount of acid present.
The exhaust flow was 12.2 L/min. Aerosols were collected on Pallflex® FiberFilm™ filters at a flow rate of 0.49 L/min for filter samples and 1.95 L/min for cascade impactor samples. Filters were placed in 20-mL vials with 5 mL of 7N HNO3 and vortexed for 30 seconds. The filters were removed and placed singly into another 20-mL vial. A […] aliquot was removed from the original vial. The filter and the aliquot were individually analyzed for ^241Am and the amount collected on the filter was determined. The aerosol concentration was determined to be 1155±223 nCi/L. The particle size was determined to be 0.63 μm AMAD (activity median aerodynamic diameter) with a 1.72 geometric standard deviation (GSD). Animals were exposed for 8 minutes. […]

[3] = C2E2 100 mg/kg (low dose) vs untreated control, dogs, 100 mg/kg
[4] = C2E2 100 mg/kg oral 24 h after ^241Am inhalation, dogs
[5] = C2E2 300 mg/kg (mid dose) vs untreated control, dogs, 300 mg/kg
[6] = C2E2 300 mg/kg oral 24 h after ^241Am inhalation, dogs
[7] = C2E2 500 mg/kg (high dose) vs untreated control, dogs, 500 mg/kg
[8] = C2E2 500 mg/kg oral 24 h after ^241Am inhalation, dogs
[9] = treated groups vs controls, dose not specified

In the case of `CCOC(=O)CN(CCN(CCN(CC(=O)O)CC(=O)OCC)CC(=O)O)CC(=O)O` [C2E2, 6,9-bis(carboxymethyl)-3-(2-ethoxy-2-oxoethyl)-11-oxo-12-oxa-3,6,9-triazatetradecan-1-oic acid], the “Stability of the gadolinium complex, log K” value [1] is reported as 17.34±1.13, the “Percent ^241Am content reduction in tissue, GIT” value [2, 3] is reported as 43.9% and the “Percent ^241Am content reduction in tissue, Gonads” value [2, 3] is reported as 51.1%. For the same molecule, the “Percent ^241Am content reduction in tissue, Kidneys” value [2, 3] was 52.4%, the “Percent ^241Am content reduction in tissue, Liver” value [2, 3] was 29.7% and the “Percent ^241Am content reduction in tissue, Lungs” value [2, 3] was 30.6%. For the same molecule, the “Percent ^241Am content reduction in tissue, Soft Tissue” value [2, 3] was 47.1%, the “Percent ^241Am content reduction in tissue, Spleen” value [2, 3] was 47.7% and the “Percent ^241Am content reduction in tissue, TBLN” value [2, 3] was 22.9%. The “Percent ^241Am content reduction in tissue, Total Bone” value [2, 3] was 41.6%, the “Average percent recovered activity, Feces” value [2, 4] was 31.78 (3.21) % and the “Average percent recovered activity, Urine” value [2, 4] was 22.35 (0.56)** %. For the same molecule, the “Average percent recovered activity, GIT” value ([2]; C2E2 100 mg/kg, dogs) was 0.53 (0.05)** %, the “Average percent recovered activity, Kidney” value ([2]; C2E2 100 mg/kg, dogs) was 0.37 (0.03)** % and the “Average percent recovered activity, Liver” value ([2]; C2E2 100 mg/kg, dogs) was 19.13 (1.34)** %. The “Average percent recovered activity, Lung” value ([2]; C2E2 100 mg/kg, dogs) was 9.69 (1.77)* %, the “Average percent recovered activity, Ovaries” value ([2]; C2E2 100 mg/kg, dogs) was 0.001 (0.000) % and the “Average percent recovered activity, Soft Tissue” value ([2]; C2E2 100 mg/kg, dogs) was 1.08 (0.07)** %. For the same molecule, the “Average percent recovered activity, Spleen” value ([2]; C2E2 100 mg/kg, dogs) was 0.16 (0.03) %, the “Average percent recovered activity, TBLN” value ([2]; C2E2 100 mg/kg, dogs) was 0.028 (0.002) % and the “Average percent recovered activity, Testes” value ([2]; C2E2 100 mg/kg, dogs) was 0.003 (0.001)* %. For the same molecule, the “Average percent recovered activity, Total Bone” value ([2]; C2E2 100 mg/kg, dogs) was 14.90 (1.97)** %, the “Percent ^241Am content reduction in tissue, GIT” value [2, 5] was 58.2% and the “Percent ^241Am content reduction in tissue, Gonads” value [2, 5] was 66.3%. For the same molecule, the “Percent ^241Am content reduction in tissue, Kidneys” value [2, 5] was 63.0%, the “Percent ^241Am content reduction in tissue, Liver” value [2, 5] was 51.0% and the “Percent ^241Am content reduction in tissue, Lungs” value [2, 5] was 48.2%. The “Percent ^241Am content reduction in tissue, Soft Tissue” value [2, 5] was 51.8%, the “Percent ^241Am content reduction in tissue, Spleen” value [2, 5] was 74.8% and the “Percent ^241Am content reduction in tissue, TBLN” value [2, 5] was 31.7%. The “Percent ^241Am content reduction in tissue, Total Bone” value [2, 5] was 45.5%, the “Percent change in excretion, Feces” value [2, 5] was 155% and the “Average percent recovered activity, Feces” value [2, 6] was 41.85 (4.43)** %. The “Average percent recovered activity, Urine” value [2, 6] was 21.93 (2.26)** %, the “Average percent recovered activity, GIT” value ([2]; C2E2 300 mg/kg, dogs) was 0.39 (0.06)** % and the “Average percent recovered activity, Kidney” value ([2]; C2E2 300 mg/kg, dogs) was 0.28 (0.04)** %. For the same molecule, the “Average percent recovered activity, Liver” value ([2]; C2E2 300 mg/kg, dogs) was 13.35 (1.51)** %, the “Average percent recovered activity, Lung” value ([2]; C2E2 300 mg/kg, dogs) was 7.23 (0.89)** % and the “Average percent recovered activity, Ovaries” value ([2]; C2E2 300 mg/kg, dogs) was 0.001 (0.001)* %. The “Average percent recovered activity, Soft Tissue” value ([2]; C2E2 300 mg/kg, dogs) was 0.99 (0.12)** %, the “Average percent recovered activity, Spleen” value ([2]; C2E2 300 mg/kg, dogs) was 0.07 (0.02)** % and the “Average percent recovered activity, TBLN” value ([2]; C2E2 300 mg/kg, dogs) was 0.024 (0.004) %. The “Average percent recovered activity, Testes” value ([2]; C2E2 300 mg/kg, dogs) was 0.003 (0.001)* %, the “Average percent recovered activity, Total Bone” value ([2]; C2E2 300 mg/kg, dogs) was 13.93 (1.30)** % and the “Percent ^241Am content reduction in tissue, GIT” value [2, 7] was 54.1%. The “Percent ^241Am content reduction in tissue, Gonads” value [2, 7] was 55.3%, the “Percent ^241Am content reduction in tissue, Kidneys” value [2, 7] was 61.8% and the “Percent ^241Am content reduction in tissue, Liver” value [2, 7] was 71.7%. For the same molecule, the “Percent ^241Am content reduction in tissue, Lungs” value [2, 7] was 63.5%, the “Percent ^241Am content reduction in tissue, Soft Tissue” value [2, 7] was 50.7% and the “Percent ^241Am content reduction in tissue, Spleen” value [2, 7] was 69.0%. For the same molecule, the “Percent ^241Am content reduction in tissue, TBLN” value [2, 7] was 35.0%, the “Percent ^241Am content reduction in tissue, Total Bone” value [2, 7] was 48.3% and the “Percent change in excretion, Urine” value [2, 7] was 1310%. For the same molecule, the “Average percent recovered activity, Feces” value [2, 8] was 36.53 (1.18)* %, the “Average percent recovered activity, Urine” value [2, 8] was 35.63 (0.70)** % and the “Average percent recovered activity, GIT” value ([2]; C2E2 500 mg/kg, dogs) was 0.44 (0.05)** %. The “Average percent recovered activity, Kidney” value ([2]; C2E2 500 mg/kg, dogs) was 0.29 (0.01)** %, the “Average percent recovered activity, Liver” value ([2]; C2E2 500 mg/kg, dogs) was 7.71 (0.35)** % and the “Average percent recovered activity, Lung” value ([2]; C2E2 500 mg/kg, dogs) was 5.10 (0.31)** %. For the same molecule, the “Average percent recovered activity, Ovaries” value ([2]; C2E2 500 mg/kg, dogs) was 0.001 (0.000) %, the “Average percent recovered activity, Soft Tissue” value ([2]; C2E2 500 mg/kg, dogs) was 1.01 (0.02)** % and the “Average percent recovered activity, Spleen” value ([2]; C2E2 500 mg/kg, dogs) was 0.09 (0.02)* %. For the same molecule, the “Average percent recovered activity, TBLN” value ([2]; C2E2 500 mg/kg, dogs) was 0.023 (0.003) %, the “Average percent recovered activity, Testes” value ([2]; C2E2 500 mg/kg, dogs) was 0.003 (0.001)* % and the “Average percent recovered activity, Total Bone” value ([2]; C2E2 500 mg/kg, dogs) was 13.20 (0.86)** %. For the same molecule, the In-life observations ([2]; dogs, single oral 100, 300, 500 mg/kg, one 500 mg/kg animal (4004) had foamy emesis) was “no unusual or adverse effects”, the “Reduction of ^241Am content, TBLN” value [2, 9] was “About 50%” and the “Reduction of ^241Am content, total bone content” value [2, 9] was about 40%.
